# Reference: PubChem BioAssay AID268 (DTP/NCI, 2004)
# Where “and” joins values, the source holds several entries; their conditions need not be identical. Equal values may be shown once.
# Tested on: CD2F1 mice, P1798 lymphosarcoma sc, tumor weight T/C
# Assay: NCI In Vivo Anticancer Drug Screen. Data for tumor model P1798 Lymphosarcoma (subcutaneous) in CD2F1 (CDF1) mice
# Conditions: endpoint: mean tumor weight, higher = larger tumour
# Experimental: The antitumor activity of compounds was measured in mice bearing transplantable tumors. Survival or tumor size were measured and the results are expressed as the measurement made in the treated group (T) divided by the measurement made in the vehicle treated control group (C). The tumor model used in this assay is P1798 Lymphosarcoma (subcutaneous) in CD2F1 (CDF1) mice
# [1] = dose: 6.25 mg/kg/injection, schedule: Q01DX010 (ip), vehicle: saline
# [2] = dose: 12.5 mg/kg/injection, schedule: Q01DX010 (ip), vehicle: saline
# [3] = dose: 50.0 mg/kg/injection, schedule: Q01DX010 (sc), vehicle: steriod suspending solution
# [4] = dose: 50.0 mg/kg/injection, schedule: Q01DX010 (ip), vehicle: saline
# [5] = dose: 100.0 mg/kg/injection, schedule: Q01DX010 (ip), vehicle: saline
# [6] = dose: 200.0 mg/kg/injection, schedule: Q01DX010 (ip), vehicle: saline
# [7] = dose: 400.0 mg/kg/injection, schedule: Q01DX010 (ip), vehicle: saline
# [8] = dose: 12.5 mg/kg/injection, schedule: Q01DX005 (sc), vehicle: steriod suspending solution
# [9] = dose: 25.0 mg/kg/injection, schedule: Q01DX005 (sc), vehicle: steriod suspending solution
# [10] = dose: 25.0 mg/kg/injection, schedule: Q02DX010 (sc), vehicle: steriod suspending solution
# [11] = dose: 50.0 mg/kg/injection, schedule: Q01DX005 (sc), vehicle: steriod suspending solution
# [12] = dose: 50.0 mg/kg/injection, schedule: Q02DX010 (sc), vehicle: steriod suspending solution
# [13] = dose: 1.25 mg/kg/injection, schedule: Q01DX010 (ip), vehicle: saline
# [14] = dose: 2.5 mg/kg/injection, schedule: Q01DX010 (ip), vehicle: saline
# [15] = dose: 250.0 mg/kg/injection, schedule: Q01DX010 (ip), vehicle: saline
compound,measurement,setting,value
CC1(C)O[C@@H]2C[C@H]3[C@@H]4CCC5=CC(=O)C=C[C@]5(C)[C@@]4(F)[C@@H](O)C[C@]3(C)[C@]2(C(=O)CO)O1,T/C,"dose: 0.5 mg/kg/injection, schedule: Q01DX005 (sc), vehicle: steriod suspending solution",56 % of control
same,T/C,"dose: 1.0 mg/kg/injection, schedule: Q01DX005 (sc), vehicle: steriod suspending solution",59 % of control
same,T/C,"dose: 1.0 mg/kg/injection, schedule: Q01DX010 (sc), vehicle: steriod suspending solution",118 % of control
same,T/C,"dose: 1.0 mg/kg/injection, schedule: Q02DX010 (sc), vehicle: steriod suspending solution",101 % of control
same,T/C,"dose: 1.0 mg/kg/injection, schedule: Q03DX004 (sc), vehicle: steriod suspending solution",71 % of control
same,T/C,"dose: 2.0 mg/kg/injection, schedule: Q01DX005 (sc), vehicle: steriod suspending solution",33 % of control
same,T/C,"dose: 2.0 mg/kg/injection, schedule: Q01DX010 (sc), vehicle: steriod suspending solution",39 % of control
same,T/C,"dose: 2.0 mg/kg/injection, schedule: Q02DX010 (sc), vehicle: steriod suspending solution",80 % of control
same,T/C,"dose: 2.0 mg/kg/injection, schedule: Q03DX004 (sc), vehicle: steriod suspending solution",26 % of control
same,T/C,"dose: 3.75 mg/kg/injection, schedule: Q01DX010 (sc), vehicle: steriod suspending solution",1 % of control
same,T/C,"dose: 4.0 mg/kg/injection, schedule: Q01DX005 (sc), vehicle: steriod suspending solution",16 % of control
same,T/C,"dose: 4.0 mg/kg/injection, schedule: Q01DX010 (sc), vehicle: steriod suspending solution",23 % of control
same,T/C,"dose: 4.0 mg/kg/injection, schedule: Q02DX010 (sc), vehicle: steriod suspending solution",113 % of control
same,T/C,"dose: 4.0 mg/kg/injection, schedule: Q03DX004 (sc), vehicle: steriod suspending solution",7 % of control
COc1ccc2[nH]c3c(C)c4ccncc4c(C)c3c2c1,T/C,"dose: 0.39 mg/kg/injection, schedule: Q01DX010 (ip), vehicle: saline",104 % of control
same,T/C,"dose: 0.78 mg/kg/injection, schedule: Q01DX010 (ip), vehicle: saline",111 % of control
same,T/C,"dose: 1.56 mg/kg/injection, schedule: Q01DX010 (ip), vehicle: saline",73 % of control
same,T/C,[1],61 % of control
same,T/C,[2],45 % of control
same,T/C,"dose: 25.0 mg/kg/injection, schedule: Q01DX010 (ip), vehicle: saline",40 % of control and 42 % of control
N#CCSc1ncnc2nc[nH]c12,T/C,"dose: 7.5 mg/kg/injection, schedule: Q01DX010 (ip), vehicle: saline",87 % of control
same,T/C,"dose: 15.0 mg/kg/injection, schedule: Q01DX010 (ip), vehicle: saline",56 % of control
same,T/C,"dose: 30.0 mg/kg/injection, schedule: Q01DX010 (ip), vehicle: saline",97 % of control and 109 % of control
same,T/C,"dose: 60.0 mg/kg/injection, schedule: Q01DX010 (ip), vehicle: saline",97 % of control and 108 % of control
C[C@H]1C[C@@H]2[C@H]([C@@H](O)C[C@@]3(C)[C@H]2CC[C@]3(O)C(=O)CO)[C@@]2(C)C=CC(=O)C=C12,T/C,[3],7 % of control
O=c1cnn(C2OC(CO)C(O)C2O)c(=O)[nH]1 (stereo unspecified),T/C,[4],80 % of control
same,T/C,[5],73 % of control
same,T/C,[6],49 % of control
same,T/C,[7],17 % of control
CC(=O)[C@@]1(O)CC[C@H]2[C@@H]3C[C@H](C)C4=CC(=O)C=C[C@]4(C)[C@@]3(F)[C@@H](O)C[C@@]21C,T/C,[8],3 % of control
same,T/C,"dose: 12.5 mg/kg/injection, schedule: Q01DX010 (sc), vehicle: steriod suspending solution",18 % of control and 41 % of control
same,T/C,[9],3 % of control
same,T/C,[10],98 % of control
same,T/C,[11],2 % of control
same,T/C,[12],93 % of control
same,T/C,"dose: 100.0 mg/kg/injection, schedule: Q01DX005 (sc), vehicle: steriod suspending solution",1 % of control
same,T/C,"dose: 100.0 mg/kg/injection, schedule: Q02DX010 (sc), vehicle: steriod suspending solution",98 % of control
C[C@]12CC[C@@H]3c4ccc(O)cc4CC[C@H]3[C@@H]1C[C@@H](O)[C@@H]2O,T/C,"dose: 6.25 mg/kg/injection, schedule: Q01DX010 (sc), vehicle: steriod suspending solution",73 % of control and 86 % of control
same,T/C,"dose: 25.0 mg/kg/injection, schedule: Q01DX010 (sc), vehicle: steriod suspending solution",69 % of control and 86 % of control
CC(=O)OC(C)(C)/C=C/C(=O)[C@](C)(O)[C@H]1[C@H](O)C[C@@]2(C)[C@@H]3CC=C4[C@@H](C=C(O)C(=O)C4(C)C)[C@]3(C)C(=O)C[C@]12C,T/C,"dose: 0.15 mg/kg/injection, schedule: Q01DX009 (ip), vehicle: saline with Tween-80",100 % of control
same,T/C,"dose: 0.3 mg/kg/injection, schedule: Q01DX009 (ip), vehicle: saline with Tween-80",84 % of control
same,T/C,"dose: 0.4 mg/kg/injection, schedule: Q01DX011 (ip), vehicle: carboxymethylcellulose (CMC)",84 % of control
same,T/C,"dose: 0.6 mg/kg/injection, schedule: Q01DX009 (ip), vehicle: saline with Tween-80",92 % of control
same,T/C,"dose: 0.8 mg/kg/injection, schedule: Q01DX011 (ip), vehicle: carboxymethylcellulose (CMC)",95 % of control
same,T/C,"dose: 1.6 mg/kg/injection, schedule: Q01DX011 (ip), vehicle: carboxymethylcellulose (CMC)",115 % of control
same,T/C,"dose: 3.2 mg/kg/injection, schedule: Q01DX011 (ip), vehicle: carboxymethylcellulose (CMC)",47 % of control
S=c1nc[nH]c2nc[nH]c12,T/C,"dose: 10.0 mg/kg/injection, schedule: Q01DX010 (ip), vehicle: alkali diluted with saline",90 % of control
same,T/C,"dose: 80.0 mg/kg/injection, schedule: Q01DX010 (ip), vehicle: alkali diluted with saline",35 % of control
CS(=O)(=O)OCCCCOS(C)(=O)=O,T/C,[1],103 % of control
same,T/C,[4],58 % of control and 80 % of control
same,T/C,[5],52 % of control
CC(=O)[C@H]1CC[C@H]2[C@@H]3C[C@H](C)C4=CC(=O)CC[C@]4(C)[C@@]3(F)[C@@H](O)C[C@]12C,T/C,[3],11 % of control
same,T/C,"dose: 100.0 mg/kg/injection, schedule: Q01DX010 (sc), vehicle: steriod suspending solution",4 % of control
same,T/C,"dose: 200.0 mg/kg/injection, schedule: Q01DX010 (sc), vehicle: steriod suspending solution",2 % of control
same,T/C,"dose: 400.0 mg/kg/injection, schedule: Q01DX010 (sc), vehicle: steriod suspending solution",2 % of control
Oc1cc(CN(CCCl)CCCl)c(O)cc1CN(CCCl)CCCl,T/C,"dose: 0.63 mg/kg/injection, schedule: Q01DX010 (ip), vehicle: saline",71 % of control and 86 % of control
same,T/C,[13],64 % of control and 88 % of control
same,T/C,[14],42 % of control and 64 % of control
CC[n+]1c(-c2ccccc2)c2cc(N)ccc2c2ccc(N)cc21,T/C,[13],108 % of control
same,T/C,[14],97 % of control
same,T/C,"dose: 10.0 mg/kg/injection, schedule: Q01DX010 (ip), vehicle: saline",4 % of control and 10 % of control
CN(C)c1ccc(/C=C/c2ccnc3ccccc23)cc1,T/C,"dose: 5.0 mg/kg/injection, schedule: Q01DX010 (ip), vehicle: saline",59 % of control
same,T/C,"dose: 20.0 mg/kg/injection, schedule: Q01DX010 (ip), vehicle: saline",39 % of control and 46 % of control
same,T/C,"dose: 40.0 mg/kg/injection, schedule: Q01DX010 (ip), vehicle: saline",30 % of control and 38 % of control
OCC1OC(n2cnc3c(Cl)ncnc32)C(O)C1O (stereo unspecified),T/C,[15],95 % of control and 103 % of control
C[C@]12C=CC(=O)C=C1CC[C@H]1[C@@H]3C[C@@H](O)[C@](O)(C(=O)CO)[C@@]3(C)C[C@H](O)[C@@]12F,T/C,[8],16 % of control
same,T/C,"dose: 12.5 mg/kg/injection, schedule: Q03DX004 (sc), vehicle: steriod suspending solution",26 % of control
same,T/C,[9],2 % of control
same,T/C,[10],115 % of control
same,T/C,"dose: 25.0 mg/kg/injection, schedule: Q03DX004 (sc), vehicle: steriod suspending solution",6 % of control
same,T/C,[11],2 % of control
same,T/C,[12],122 % of control
same,T/C,"dose: 50.0 mg/kg/injection, schedule: Q03DX004 (sc), vehicle: steriod suspending solution",5 % of control
CCCNc1ncnc2c1cnn2C,T/C,"dose: 3.13 mg/kg/injection, schedule: Q01DX010 (ip), vehicle: saline",90 % of control
same,T/C,[1],103 % of control
same,T/C,[2],86 % of control
O=C(CNC(=O)OCc1ccccc1)NCCCCCCNCCCCCCNC(=O)CNC(=O)OCc1ccccc1,T/C,[4],120 % of control
same,T/C,[5],97 % of control
Cc1cn(C2OC(CO)C(O)C2O)c(=O)[nH]c1=O (stereo unspecified),T/C,"dose: 62.5 mg/kg/injection, schedule: Q01DX010 (ip), vehicle: saline",97 % of control
same,T/C,[5],67 % of control
same,T/C,"dose: 125.0 mg/kg/injection, schedule: Q01DX010 (ip), vehicle: saline",96 % of control
same,T/C,[6],80 % of control
same,T/C,[15],72 % of control
same,T/C,[7],85 % of control
same,T/C,"dose: 500.0 mg/kg/injection, schedule: Q01DX010 (ip), vehicle: saline",69 % of control
same,T/C,"dose: 800.0 mg/kg/injection, schedule: Q01DX010 (ip), vehicle: saline",75 % of control
